# From patent publication US20250376468A1, “PYRAZOLO[1,5-a]PYRIDINE DERIVATIVES FOR TREATING TRPM3-MEDIATED DISORDERS” (Katholieke Universiteit Leuven, priority 2022, published 2025)
# Target: T1, mouse TRPM3α2 (mTRPM3) ion channel (Mus musculus, UniProt J9SQF3)
# T1 construct: expressed in transfected cells; host or cells: flip-in HEK293 (Flp-In HEK293) overexpressing mTRPM3alpha2
# Test: TRPM3 ion channel driven Ca2+ uptake, Fluo-4 AM assay, stimulated with pregnenolone sulfate (50 μM)
# Format: cell-based
# Details: TRPM3 overexpressing flip-in HEK293 cells, PS 50 μM, 2.4 mM Ca2+
# Procedure: In order to monitor the inhibition of the mouse TRPM3α2 (mTRPM3) ion channel by the compounds of the invention, a cellular system making use of an mTRPM3alpha2 or hTRPM3 overexpressing cell line (flip-in HEK293) was used. The TRPM3 channel was stimulated/opened with Pregnenolone sulfate (PS) (50 μM) which results in Ca^2+ influx.
# For mTRPM3, the intracellular Ca^2+ was measured with a Calcium responsive dye, Fluor-4 AM ester (Invitrogen). Cells were cultured until a confluence of 80-90%, washed with Versene (Invitrogen) and detached from the surface by a short incubation with 0.05% Trypsin (Invitrogen). The […] was stopped by the addition of complete cell culture medium (DMEM, glutamax, 10% FCS, NEAA, Pen-Strep). Cells were collected and resuspended in Krebs buffer without Calcium at RT.
# Prior the cell seeding (±2000 cells/well into a black, 384 well plate (Greiner)) the diluted compound was added in the assay plate, together with the PS dissolved in Krebs buffer containing Calcium. […] Directly after cell addition the plates were read on an Envision fluorescence reader (Perkin Elmer) by an Excitation of 485 nm and emission at 535 nm.
# Channel inhibition was calculated compared to a non-PS stimulated control versus a condition stimulated with PS (50 μM) with vehicle. The ability of the compounds of the invention to inhibit this activity was determined as: Percentage inhibition=[1−((RFU determined for sample with test compound present−RFU determined for sample with positive control inhibitor) divided by (RFU determined in the presence of vehicle−RFU determined for sample with positive control inhibitor))]*100.
# The activities of the Example compounds cpd 001-091 tested are depicted in the table below. All tested compounds show an activity in the Fluo-4 AM assay. The activity ranges A, B and C refer to IC50 values in the Fluo-4 AM assay as follows: “A”: IC50<1 μM; “B”: 1 μM≤IC50≤20 μM and “C”: IC50>20 μM.
# T1 sequence (J9SQF3 1-1709 isoform J9SQF3-12): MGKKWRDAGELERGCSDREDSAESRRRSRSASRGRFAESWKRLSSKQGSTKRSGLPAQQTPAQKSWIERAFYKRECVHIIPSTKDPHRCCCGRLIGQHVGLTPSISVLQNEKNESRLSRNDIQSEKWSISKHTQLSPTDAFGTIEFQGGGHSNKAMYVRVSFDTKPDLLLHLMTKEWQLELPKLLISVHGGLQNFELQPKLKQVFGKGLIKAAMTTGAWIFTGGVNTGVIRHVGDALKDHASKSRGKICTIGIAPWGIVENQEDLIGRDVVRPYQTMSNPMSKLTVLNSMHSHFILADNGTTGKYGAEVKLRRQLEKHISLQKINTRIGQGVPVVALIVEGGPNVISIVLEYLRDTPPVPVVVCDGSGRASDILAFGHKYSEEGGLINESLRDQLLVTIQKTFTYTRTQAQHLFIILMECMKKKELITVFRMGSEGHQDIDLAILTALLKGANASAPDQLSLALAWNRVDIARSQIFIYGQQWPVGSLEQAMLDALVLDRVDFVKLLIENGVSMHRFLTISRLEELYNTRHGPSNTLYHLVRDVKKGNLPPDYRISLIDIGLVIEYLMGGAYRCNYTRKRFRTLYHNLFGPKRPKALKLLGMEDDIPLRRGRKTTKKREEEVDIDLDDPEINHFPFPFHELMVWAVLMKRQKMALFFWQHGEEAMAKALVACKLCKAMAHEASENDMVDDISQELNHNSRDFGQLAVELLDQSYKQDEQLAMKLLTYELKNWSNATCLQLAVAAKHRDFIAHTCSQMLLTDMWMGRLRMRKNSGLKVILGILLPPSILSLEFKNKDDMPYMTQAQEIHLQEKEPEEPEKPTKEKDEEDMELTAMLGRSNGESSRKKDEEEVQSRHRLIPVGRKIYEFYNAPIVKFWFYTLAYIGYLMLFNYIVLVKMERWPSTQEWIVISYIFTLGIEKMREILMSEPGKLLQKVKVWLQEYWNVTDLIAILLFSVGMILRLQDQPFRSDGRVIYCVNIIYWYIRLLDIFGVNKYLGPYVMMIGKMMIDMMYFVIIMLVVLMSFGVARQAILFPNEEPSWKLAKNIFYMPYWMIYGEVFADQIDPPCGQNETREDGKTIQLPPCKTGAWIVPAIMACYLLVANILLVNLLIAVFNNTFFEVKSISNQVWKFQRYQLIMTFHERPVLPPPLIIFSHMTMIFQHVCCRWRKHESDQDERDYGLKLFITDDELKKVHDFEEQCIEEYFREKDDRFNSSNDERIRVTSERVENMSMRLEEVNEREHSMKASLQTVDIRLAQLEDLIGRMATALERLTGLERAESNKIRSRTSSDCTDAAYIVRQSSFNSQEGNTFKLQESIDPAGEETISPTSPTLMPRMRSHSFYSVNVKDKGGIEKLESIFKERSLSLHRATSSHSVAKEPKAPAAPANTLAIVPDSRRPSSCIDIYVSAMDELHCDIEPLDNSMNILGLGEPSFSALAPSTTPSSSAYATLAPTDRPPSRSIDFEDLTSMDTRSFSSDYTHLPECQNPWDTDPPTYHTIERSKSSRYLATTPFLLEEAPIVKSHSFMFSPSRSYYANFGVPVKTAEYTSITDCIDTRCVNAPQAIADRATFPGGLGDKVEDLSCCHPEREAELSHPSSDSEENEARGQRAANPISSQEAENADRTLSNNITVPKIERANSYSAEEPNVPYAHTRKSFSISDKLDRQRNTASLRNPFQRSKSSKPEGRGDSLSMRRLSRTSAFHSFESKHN
smiles,measurement,value
"Cc1nn2ccc(OCc3ccccn3)cc2c1C(=O)N[C@@]1(CO)C[C@H]1C(F)F (relative stereo) [Cpd 072 - En1, N-[cis-2-(difluoromethyl)-1-(hydroxymethyl)cyclopropyl]-2-methyl-5-[(pyridin-2-yl)methoxy]pyrazolo[1,5-a]pyridine-3-carboxamide]",IC50,1 to 20 µM
"Cc1nn2ccc(OCc3ccccn3)cc2c1C(=O)N[C@@]1(CO)C[C@H]1C(F)F (relative stereo) [Cpd 072 - En2, N-[cis-2-(difluoromethyl)-1-(hydroxymethyl)cyclopropyl]-2-methyl-5-[(pyridin-2-yl)methoxy]pyrazolo[1,5-a]pyridine-3-carboxamide]",IC50,> 20 µM
"CNC(=O)C(C)(CO)NC(=O)c1c(C)nn2ccc(OCc3ccccc3F)cc12 (single isomer, unassigned) [Cpd 011 - En1, 2-({5-[(2-fluorophenyl)methoxy]-2-methylpyrazolo[1,5-a]pyridin-3-yl}formamido)-3-hydroxy-N,2-dimethylpropanamide]",IC50,< 1 µM
"CNC(=O)C(C)(CO)NC(=O)c1c(C)nn2ccc(OCc3ccccc3F)cc12 (single isomer, unassigned) [Cpd 011 - En2, 2-({5-[(2-fluorophenyl)methoxy]-2-methylpyrazolo[1,5-a]pyridin-3-yl}formamido)-3-hydroxy-N,2-dimethylpropanamide]",IC50,1 to 20 µM
"Cc1nn2ccc(OCc3ccccc3F)cc2c1C(=O)NC1(CO)CCNC1=O (single isomer, unassigned) [Cpd 018 - En1, 5-[(2-fluorophenyl)methoxy]-N-[3-(hydroxymethyl)-2-oxopyrrolidin-3-yl]-2-methylpyrazolo[1,5-a]pyridine-3-carboxamide]",IC50,1 to 20 µM
"Cc1nn2ccc(OCc3ccccc3F)cc2c1C(=O)NC1(CO)CCNC1=O (single isomer, unassigned) [Cpd 018 - En2, 5-[(2-fluorophenyl)methoxy]-N-[3-(hydroxymethyl)-2-oxopyrrolidin-3-yl]-2-methylpyrazolo[1,5-a]pyridine-3-carboxamide]",IC50,< 1 µM
"Cc1nn2ccc(OCc3ccccc3Cl)cc2c1C(=O)NC(C)(CO)C(N)=O (single isomer, unassigned) [Cpd 019 - En1, 2-({5-[(2-chlorophenyl)methoxy]-2-methylpyrazolo[1,5-a]pyridin-3-yl}formamido)-3-hydroxy-2-methylpropanamide]",IC50,< 1 µM
"Cc1nn2ccc(OCc3ccccc3Cl)cc2c1C(=O)NC(C)(CO)C(N)=O (single isomer, unassigned) [Cpd 019 - En2, 2-({5-[(2-chlorophenyl)methoxy]-2-methylpyrazolo[1,5-a]pyridin-3-yl}formamido)-3-hydroxy-2-methylpropanamide]",IC50,1 to 20 µM
"Cc1nn2ccc(OCc3ccccc3F)cc2c1C(=O)NC(C)(CO)C(N)=O (single isomer, unassigned) [Cpd 020 - En1, 2-({5-[(2-fluorophenyl)methoxy]-2-methylpyrazolo[1,5-a]pyridin-3-yl}formamido)-3-hydroxy-2-methylpropanamide]",IC50,< 1 µM
"Cc1nn2ccc(OCc3ccccc3F)cc2c1C(=O)NC(C)(CO)C(N)=O (single isomer, unassigned) [Cpd 020 - En2, 2-({5-[(2-fluorophenyl)methoxy]-2-methylpyrazolo[1,5-a]pyridin-3-yl}formamido)-3-hydroxy-2-methylpropanamide]",IC50,1 to 20 µM
"Cc1nn2ccc(OCc3ccccc3F)cc2c1C(=O)N(C)C(C)(CO)C(N)=O (single isomer, unassigned) [Cpd 024 - En1, 2-(1-{5-[(2-fluorophenyl)methoxy]-2-methylpyrazolo[1,5-a]pyridin-3-yl}-N-methylformamido)-3-hydroxy-2-methylpropanamide]",IC50,1 to 20 µM
"Cc1nn2ccc(OCc3ccccc3F)cc2c1C(=O)N(C)C(C)(CO)C(N)=O (single isomer, unassigned) [Cpd 024 - En2, 2-(1-{5-[(2-fluorophenyl)methoxy]-2-methylpyrazolo[1,5-a]pyridin-3-yl}-N-methylformamido)-3-hydroxy-2-methylpropanamide]",IC50,1 to 20 µM
"Cc1nn2ccc(OCc3ccccn3)cc2c1C(=O)NC(C)(CO)CC(F)F (single isomer, unassigned) [Cpd 038 - En1, N-(4,4-difluoro-1-hydroxy-2-methylbutan-2-yl)-2-methyl-5-[(pyridin-2-yl)methoxy]pyrazolo[1,5-a]pyridine-3-carboxamide]",IC50,1 to 20 µM
"Cc1nn2ccc(OCc3ccccn3)cc2c1C(=O)NC(C)(CO)CC(F)F (single isomer, unassigned) [Cpd 038 - En2, N-(4,4-difluoro-1-hydroxy-2-methylbutan-2-yl)-2-methyl-5-[(pyridin-2-yl)methoxy]pyrazolo[1,5-a]pyridine-3-carboxamide]",IC50,< 1 µM
"Cc1nn2ccc(OCc3ccccn3)cc2c1C(=O)NC1CNCCC1(F)F (single isomer, unassigned) [Cpd 050 - En1, N-(4,4-difluoropiperidin-3-yl)-2-methyl-5-[(pyridin-2-yl)methoxy]pyrazolo[1,5-a]pyridine-3-carboxamide]",IC50,> 20 µM
"Cc1nn2ccc(OCc3ccccn3)cc2c1C(=O)NC1CNCCC1(F)F (single isomer, unassigned) [Cpd 050 - En2, N-(4,4-difluoropiperidin-3-yl)-2-methyl-5-[(pyridin-2-yl)methoxy]pyrazolo[1,5-a]pyridine-3-carboxamide]",IC50,1 to 20 µM
"Cc1nn2ccc(OCc3ccccn3)cc2c1C(=O)NC1CNCC(F)(F)C1 (single isomer, unassigned) [Cpd 052 - En1, N-(5,5-difluoropiperidin-3-yl)-2-methyl-5-[(pyridin-2-yl)methoxy]pyrazolo[1,5-a]pyridine-3-carboxamide]",IC50,1 to 20 µM
"Cc1nn2ccc(OCc3ccccn3)cc2c1C(=O)NC1CNCC(F)(F)C1 (single isomer, unassigned) [Cpd 052 - En2, N-(5,5-difluoropiperidin-3-yl)-2-methyl-5-[(pyridin-2-yl)methoxy]pyrazolo[1,5-a]pyridine-3-carboxamide]",IC50,> 20 µM
"Cc1nn2ccc(OCc3ccccn3)cc2c1C(=O)NC(C)(CO)C(N)=O (single isomer, unassigned) [Cpd 089 - En1, 3-hydroxy-2-methyl-2-({2-methyl-5-[(pyridin-2-yl)methoxy]pyrazolo[1,5-a]pyridin-3-yl}formamido)propanamide]",IC50,> 20 µM
"Cc1nn2ccc(OCc3ccccn3)cc2c1C(=O)NC(C)(CO)C(N)=O (single isomer, unassigned) [Cpd 089 - En2, 3-hydroxy-2-methyl-2-({2-methyl-5-[(pyridin-2-yl)methoxy]pyrazolo[1,5-a]pyridin-3-yl}formamido)propanamide]",IC50,< 1 µM
"CCC(CO)(NC(=O)c1c(C)nn2ccc(OCc3ccccc3F)cc12)C(N)=O (stereo not shown) [Cpd 001, 2-({5-[(2-fluorophenyl)methoxy]-2-methylpyrazolo[1,5-a]pyridin-3-yl}formamido)-2-(hydroxymethyl)butanamide]",IC50,< 1 µM
"Cc1nn2ccc(OCc3ccccc3F)cc2c1C(=O)NC(C)(CO)CO [Cpd 002, N-(1,3-dihydroxy-2-methylpropan-2-yl)-5-[(2-fluorophenyl)methoxy]-2-methylpyrazolo[1,5-a]pyridine-3-carboxamide]",IC50,1 to 20 µM
"Cc1nn2ccc(OCc3ccccc3F)cc2c1C(=O)N[C@@H](CO)C(N)=O [Cpd 003, (2S)-2-({5-[(2-fluorophenyl)methoxy]-2-methylpyrazolo[1,5-a]pyridin-3-yl}formamido)-3-hydroxypropanamide]",IC50,< 1 µM
"Cc1nn2ccc(OCc3ccccc3F)cc2c1C(=O)NC(C)(C)C(N)=O [Cpd 004, 2-({5-[(2-fluorophenyl)methoxy]-2-methylpyrazolo[1,5-a]pyridin-3-yl}formamido)-2-methylpropanamide]",IC50,1 to 20 µM
"Cc1nn2ccc(OCc3ccccc3F)cc2c1C(=O)NCCNS(C)(=O)=O [Cpd 005, 5-[(2-fluorophenyl)methoxy]-N-(2-methanesulfonamidoethyl)-2-methylpyrazolo[1,5-a]pyridine-3-carboxamide]",IC50,1 to 20 µM
"Cc1nn2ccc(OCc3ccccc3F)cc2c1C(=O)NCC(F)F [Cpd 006, N-(2,2-difluoroethyl)-5-[(2-fluorophenyl)methoxy]-2-methylpyrazolo[1,5-a]pyridine-3-carboxamide]",IC50,1 to 20 µM
"Cc1nn2ccc(OCc3ccccc3F)cc2c1C(=O)N[C@H](C(N)=O)[C@@H](C)O [Cpd 007, (2S,3R)-2-({5-[(2-fluorophenyl)methoxy]-2-methylpyrazolo[1,5-a]pyridin-3-yl}formamido)-3-hydroxybutanamide]",IC50,< 1 µM
"Cc1ncsc1COc1ccn2nc(C)c(C(=O)NC(C)(CO)CO)c2c1 [Cpd 008, N-(1,3-dihydroxy-2-methylpropan-2-yl)-2-methyl-5-[(4-methyl-1,3-thiazol-5-yl)methoxy]pyrazolo[1,5-a]pyridine-3-carboxamide]",IC50,1 to 20 µM
